Laboratory results taken from patent US8962637B2, “Bicyclic compounds and their uses as dual c-SRC/JAK inhibitors” (Debiopharm S.A., priority 2010, dated 2015).

How the values were obtained:
[1] = test system: B16F10 tumor cells; test: B16F10 metastasis model; format: in vivo, C57B16 mice; conditions: for Metastasis Inhibition: B16F10 model; for % metastasis inhib.: Efficacy - B16F10 at 100 MPK
Procedure: (§1) IV injection of 0.1×10^6 B16F10 tumor cells in the tail vain of 60 male C57B16 mice. Randomization of mice one day after tumor cell injection into 4 groups of 15 mice. Out of 15, 6 mice were sacrificed on 14th day for counting metastatic foci on lungs. Rest 9 mice were dosed continuously till morbidity/mortality for recording survival.
(§2) Formulation: 20% HPC, 2% ethanol solution in PBS for the compound No. 45
(§3) Plasma collected for drug concentration estimation and whole blood was collected to isolate PBMCs to determine pStat3 inhibition by flow cytometry as PD readout.

[2] = molecular target: JAK2 (Homo sapiens (Human), UniProt O60674); test: TR-FRET JAK2 kinase assay; format: biochemical; conditions: ATP 10 μM
Procedure: Compounds were screened in the TR-FRET assay for JAK2 and c-Src kinase inhibition. Ultra light poly GT (Perkin Elmer) was used as the substrate for JAK2 and c-Src with the ATP concentration of 10 μM and 50 μM, respectively. […] The dose-response curve fitting was done using GraphPad Prism software.

[3] = mouse, in vivo
[4] = test system: A431 tumor cells; test: A431 xenograft model; format: in vivo, athymic nude mice; conditions: for TGI: Efficacy - A431 at 100 MPK
Procedure: SC injection of 5×10^6 A431 tumor cells with Matrigel® on the left flank of 24 female athymic nude mice. Randomization of mice 14 days after tumor cell injection into 3 groups of 8 mice each with a mean tumor volume of 90±1 mm3.
as §2
• Normal saline for Gefitinib® Dosing route: Oral for the compound No. 45 and Gefitinib® Dose Volume: 10 mL/Kg body weight Dosing schedule: Once daily for 14 consecutive days (Q1Dx14) PK-PD experiment in A431 model: Tumors were allowed to grow to 250 mm^3 size. Compounds were dosed once and PBMCs and tumors were collected at Tmax for pStat3 estimation. Plasma was also collected to estimate drug concentration estimation. Efficacy experiment in A431 model: Dosage: • Group1. Vehicle control • Group2. Compound No. 45—150 MPK • Group3. […] Plasma collected for drug concentration estimation and whole blood was collected to isolate PBMCs to determine pStat3 inhibition by flow cytometry as PD readout. Tumors were snap frozen in liquid nitrogen and stored at −80° C. to estimate pStat3 by flow cytometry as PD readout Determination of Plasma Drug Concentration: […]

[5] = test system: B16F10 tumor cells; test: B16F10 survival model; format: in vivo, C57B16 mice
Procedure: as §1, §3

[6] = test system: pStat3; test: Quantification of pStat3 in PBMCs by flow cytometry; format: in vivo, mice
Procedure: Phosphorylation of Stat3 was stimulated by addition of hIL6 (10 ug/mL) for 30 min at 37° C. Blood was fixed with formaldehyde (final 2% v/v) for 10 min at 37° C.
Buffy coat (PBMCs) was separated by aspirating translucent layer using pipetteman and washed twice with PBS-1×
Pre chilled PBMC's were permeabilized by adding ice cold Methanol, while vortexing gently (final volume 90% MeOH v/v) and incubated for 30 min on ice.
Permeabilized PBMCs were washed with PBS once. PBMCs re-suspended to 2×10^6 cells in 200 μL of incubation buffer for 10 min at room temperature (RT). Primary Ab was added (1:100 dilution) and incubated 45 min at RT. Washed as before (twice) and re-suspended in fluorochrome conjugated secondary Ab (1:500 dilution) and incubated at RT in dark for 30 min. Washed and re-suspended in […] PBS.
(§4) Measured pStat3 using FACS caliber machine (BD). Unstained PBMCs was used for cytometry settings. […] Histograms (cell number V/s FL1-H) were plotted. Percentage of cells that are phosphorylated by IL6 stimulation (M2 population), and inhibition of phosphorylation by inhibitor (decrease in M2 population) are calculated on histogram by marking peaks, M1 and M2.

[7] = test system: pStat3; test: Quantification of pStat3 in tumors by flow cytometry; format: in vivo, mice
Procedure: as §4
Separate the tumour & 200 mg of tumour was crashed (45 mg per ml) by using IKA 10 at Speed #4 for 10 seconds. Sieve the tumour extract through 100 u, centrifuge at 900 g for 10 min. Re-suspend cells briefly in 0.5-1 ml PBS. Add formaldehyde to a final concentration of 2-4% formaldehyde. Fix for 10 minutes at 37° C. Chill tubes on ice for 1 minute.
Permeabilize cells by adding ice-cold 100% methanol slowly to pre-chilled cells, while gently vortexing, to a final concentration of 90% methanol. Alternatively, to remove fix prior to permeabilization, pellet cells by centrifugation and re-suspend in 90% methanol. Incubate 30 minutes on ice. Proceed with staining or store cells at −20° C. in 90% methanol. Aliquot 0.5-1×10^6 cells into each assay tube (by volume). Add 2-3 ml Incubation Buffer to each tube and rinse by centrifugation. Repeat. Re-suspend cells in 100 μl Incubation Buffer per assay tube. Analyze by flow cytometry like PBMCs.

Chain of JAK2 (O60674 whole entry): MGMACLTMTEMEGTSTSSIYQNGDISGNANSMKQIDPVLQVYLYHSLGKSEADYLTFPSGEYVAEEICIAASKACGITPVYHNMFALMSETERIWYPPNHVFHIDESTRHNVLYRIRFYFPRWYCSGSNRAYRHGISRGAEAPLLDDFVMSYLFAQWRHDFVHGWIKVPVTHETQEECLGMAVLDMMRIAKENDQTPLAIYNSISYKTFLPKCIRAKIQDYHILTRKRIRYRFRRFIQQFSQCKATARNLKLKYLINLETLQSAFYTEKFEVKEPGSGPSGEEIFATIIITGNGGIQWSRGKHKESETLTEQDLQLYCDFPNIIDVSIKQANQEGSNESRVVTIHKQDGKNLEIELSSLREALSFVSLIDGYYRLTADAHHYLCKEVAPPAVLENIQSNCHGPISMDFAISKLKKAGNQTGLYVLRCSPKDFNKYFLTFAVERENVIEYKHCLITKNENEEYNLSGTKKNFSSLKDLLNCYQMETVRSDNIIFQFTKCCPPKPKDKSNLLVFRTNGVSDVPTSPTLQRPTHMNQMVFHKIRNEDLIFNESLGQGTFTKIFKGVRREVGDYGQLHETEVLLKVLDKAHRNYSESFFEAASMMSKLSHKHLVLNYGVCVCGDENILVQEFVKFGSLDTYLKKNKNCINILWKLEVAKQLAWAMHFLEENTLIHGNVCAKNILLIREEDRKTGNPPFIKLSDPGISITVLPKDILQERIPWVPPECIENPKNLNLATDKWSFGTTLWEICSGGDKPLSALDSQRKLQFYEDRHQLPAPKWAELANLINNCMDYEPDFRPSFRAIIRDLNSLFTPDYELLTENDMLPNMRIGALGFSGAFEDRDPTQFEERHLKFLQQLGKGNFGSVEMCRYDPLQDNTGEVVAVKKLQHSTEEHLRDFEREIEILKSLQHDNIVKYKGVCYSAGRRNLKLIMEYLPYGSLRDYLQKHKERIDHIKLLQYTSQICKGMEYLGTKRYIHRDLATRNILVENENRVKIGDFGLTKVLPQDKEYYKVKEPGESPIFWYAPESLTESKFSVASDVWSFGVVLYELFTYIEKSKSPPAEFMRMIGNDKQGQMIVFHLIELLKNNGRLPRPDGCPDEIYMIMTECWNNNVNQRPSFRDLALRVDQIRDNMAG

SMILES: Cc1ccc(NC(=O)c2cccc(C(F)(F)F)c2)cc1N1CCc2nc(Nc3ccc(N4CCN(C)CC4)cc3)ncc2C1=O [Compound 45, N-(4-Methyl-3-{2-[4-(4-methyl-piperazin-1-yl)-phenylamino]-5-oxo-7,8-dihydro-5H-pyrido[4,3-d]pyrimidin-6-yl}-phenyl)-3-trifluoromethyl-benzamide]
- anti-tumor activity ([1]; B16F10 metastasis model): good anti-tumor activity
- reduction in metastatic counts on lungs ([1]; B16F10 metastasis model, 100 MPK, Q1Dx14): 75%
- Metastasis Inhibition ([1]; 30 MPK): 73%
- Metastasis Inhibition ([1]; 100 MPK): 75%
- % metastasis inhib. [1]: 75%
- IC50 [2]: 15 nM
- good tolerance ([3]; athymic, 14 days): up to 250 MPK
- MTD [3]: 250 MPK
- % TGI ([4]; A431 Xenograft model, 100 MPK): 52.55%
- TGI [4]: 48%
- Survival advantage ([5]; B16F10 survival model, dosing Q1Dx14): 37.5%
- Survival advantage ([5]; Efficacy - B16F10 at 100 MPK): 9 days
- PBMCs % pStat3 inhibition ([6]; A431 Xenograft model, 100 MPK): 56.32%
- PBMCs % pStat3 inhibition ([6]; A549 Xenograft model, 10 MPK): 55.61%
- PBMCs % pStat3 inhibition ([6]; A549 Xenograft model, 30 MPK): 60.66%
- PBMCs % pStat3 inhibition ([6]; A549 Xenograft model, 100 MPK): 65.28%
- PBMCs % pStat3 inhibition ([6]; A549 Xenograft model, 150 MPK): 76.56%
- PBMCs % pStat3 inhibition ([6]; B16F10 model, 30 MPK): 66%
- PBMCs % pStat3 inhibition ([6]; B16F10 model, 100 MPK): 73%
- % pSTAT3 inhibition in PBMCs (MTD study) ([6]; at 100 MPK): 84% at
- Tumors % pStat3 inhibition ([7]; A431 Xenograft model, 100 MPK): 44.3%
- Tumors % pStat3 inhibition ([7]; A549 Xenograft model, 10 MPK): 44.46%
- Tumors % pStat3 inhibition ([7]; A549 Xenograft model, 30 MPK): 48.92%
- Tumors % pStat3 inhibition ([7]; A549 Xenograft model, 100 MPK): 61.51%
- Tumors % pStat3 inhibition ([7]; A549 Xenograft model, 150 MPK): 57.08%
- % pSTAT3 inhib. (tumour) ([7]; Efficacy - A431 at 100 MPK): 45%
- % pSTAT3 inhib. (tumour) ([7]; Efficacy - A549, at 100 MPK): 62% at

SMILES: Cc1ccc(NC(=O)c2cccc(C(F)(F)F)c2)cc1N1CCc2nc(Nc3ccc(C(=O)NC4CC4)nc3)ncc2C1 [Compound 117, 5-{6-[2-Methyl-5-(3-trifluoromethyl-benzoylamino)-phenyl]-5,6,7,8-tetrahydro-pyrido[4,3-d]pyrimidin-2-ylamino}-pyridine-2-carboxylic acid cyclopropylamide]
- % metastasis inhib. [1]: 26%
- IC50 [2]: 18 nM
- MTD [3]: 100 MPK
- TGI [4]: 54%
- Survival advantage ([5]; Efficacy - B16F10 at 100 MPK): 1 day days
- % pSTAT3 inhibition in PBMCs (MTD study) ([6]; at 100 MPK): 83% at
- % pSTAT3 inhib. (tumour) ([7]; Efficacy - A431 at 100 MPK): 10%
- % pSTAT3 inhib. (tumour) ([7]; Efficacy - A549, at 100 MPK): 47% at

SMILES: CNC(=O)c1ccc(Nc2ncc3c(n2)CCN(c2cc(NC(=O)c4cc(C(F)(F)F)ccn4)ccc2Cl)C3)cc1 [Compound 179, 4-Trifluoromethyl-pyridine-2-carboxylic acid {4-chloro-3-[2-(4-methylcarbamoyl-phenylamino)-7,8-dihydro-5H-pyrido[4,3-d]pyrimidin-6-yl]-phenyl}-amide]
- % metastasis inhib. [1]: 47%
- IC50 [2]: 6.4 nM
- inhibition at 0.1 µM ([2]; read-out: JAK2 % inhibition at 100 nM, 100 nM): 81%
- inhibition at 1 µM ([2]; read-out: JAK2 % inhibition at 1 μM, 1 μM): 92%
- MTD [3]: 30 MPK
- TGI [4]: 67%
- Survival advantage ([5]; Efficacy - B16F10 at 100 MPK): 4 days
- % pSTAT3 inhibition in PBMCs (MTD study) ([6]; at 30 MPK): 65% at
- % pSTAT3 inhib. (tumour) ([7]; Efficacy - A431 at 100 MPK): 54%
- % pSTAT3 inhib. (tumour) ([7]; Efficacy - A549, at 30 MPK): 79% at
